Experimental data reported in patent publication US5466717A, “Halogenated 4'-methoxyacetophenones as microbicides and preservatives” (Buckman Laboratories Int'l, Inc., priority 1993, dated 1995).
≈ marks a conversion by molar mass, not a printed value. Like-named read-outs stand apart in the source and are kept apart here.

Tests used:
[1] = system: Pseudomonas aeruginosa, Enterobacter serogenes and Bacillus subtilus; experiment: Preservation of acrylic latex paint, 9 week multiple challenge test (Table 1); format: cell-based; design: key: 0: no growth was observed; +: less than 10 colonies were observed; ++: 10 or more colonies were observed
Experimental: The preservative effectiveness of compounds 1 and 2 was determined in a freshly prepared water-based paint formulated with titanium dioxide and calcium carbonate as pigments, an acrylic resin emulsion, dispersants, and hydroxyethyl cellulose as a thickener. The pH of this paint was approximately 9.0. […] One hundred gram samples of the test paints were challenged initially and at the end of the third and sixth weeks in a three-challenge, nine-week test with 1.0 milliliter of […] containing Pseudomonas aeruginosa, Enterobacter serogenes and Bacillus subtilus at a level of approximately 1.5×10^6 organisms per milliliter. After vigorous shaking, the inoculated paint was incubated at 28° C. Growth in system was monitored by streaking a sample of each test paint onto a nutrient agar on plates at intervals of 1 day, 2 days, 3 days, 7 days, and 21 days after each challenge. The streaked plates were incubated at 37° C. and examined for bacterial growth after 24 hours (challenge 1). A second sample of the same inoculated paint was rechallenged at the end of 21 days (challenge 2) and again at the end of 42 days (challenge 3).

[2] = system: Aspergillus niger; experiment: Inhibition of Aspergillus niger, modified pulp substrate method (Table 3); format: cell-based; design: key: 4: excellent; 3: good; 2: poor; 1: very poor, scant, questionable; 0: no growth; settings: pH 4.5 to 5.0
Experimental: The growth inhibiting activity of compounds 1 and 2 on the fungus Aspergillus niger was evaluated. A variation of the pulp substrate method of Example 2 was used.
When fungi are used as test organisms, the pulp-substrate test method is modified to permit the growth of fungi. The pulp substrate comprises an aqueous slurry of spruce groundwood containing 1 percent by weight (dry basis) of wood fibers enriched by the addition of 0.26 percent of sodium nitrate and 0.64 percent of maltose (technical grade). Forty-gram portions of the enriched groundwood pulp slurry were added to 250 mL Erlenmeyer flasks fitted with loose metal caps and were then sterilized. Each of the following substances was then added to the flasks in the order listed:
(1) Sterile, demineralized water as required in each individual case was added to bring the total weight of the contents of each flask to 50 grams, after allowing for all subsequent additions specified hereinafter (including inoculation with the aqueous suspension of spores and/or mycelial fragments of the test fungus).
(2) One milliliter of a 2.0 percent by weight sterile solution of rosin size. Rosin size is the pasty sodium soap of rosin containing approximately 20 to 30 percent free rosin and 30 percent water. A suitable rosin size is that known as rosin size 70D made by Papermaker's Chemical Department, Hercules, Inc., Kalamazoo, Mich.
(3) A solution of the toxicant or control agent to be evaluated in each test, to give the concentration desired in parts per million by weight.
(4) A sterile solution of buffer salts to adjust the substrate to a pH of 4.5 to 5.0, prepared from 0.2M solutions of potassium acid phthalate and sodium hydroxide. The buffer mixtures were prepared according to the procedures set forth in U.S. Pat. No. 2,881,070.
(5) Inoculum consisting of 1 milliliter of an aqueous suspension of spores and/or mycelial fragments of the test organism, Aspergillus niger.
After the inoculant suspensions of the test fungi were added, the flasks were incubated at a temperature of 30°±1° C. for a period adequate for growth to occur in the controls (portions of inoculated pulp substrate which contained no toxicant). The customary periods of incubation were 7 and 14 days. Growth was recorded after each period on the basis of the following key: […]

[3] = system: E. aerogenes; experiment: Basal salts method, percentage kill of E. aerogenes (Table 5); format: cell-based, Enterobacter aerogenes; settings: Klebsiella aerogenes
Experimental: Compounds 1 and 2 were tested against bacterial growth by the basal salts method described in U.S. Pat. No. 2,881,070, Column 5, line 12--Column 6, line 53. The disclosure of U.S. Patent No. 2,881,070 is specifically incorporated here by reference.

[4] = system: Chlorella pyrenoidosa; experiment: Growth inhibition of algae in Difco Algae Broth (Table 6); format: cell-based; settings: Auxenochlorella pyrenoidosa, 672 h, read-out: Minimum inhibitory concentration
Experimental: The growth-inhibiting activity of the method of the invention against the algae Chlorella pyrenoidosa was evaluated at two different pH levels in Difco Algae Broth. The content of the broth was as follows: Forty-gram portions of the algae medium were added to 250 mL Erlenmeyer flasks fitted with loose metal caps and were then sterilized. Each of the following substances was then added to the flasks in the order listed: (1) Sterile algae medium as required to bring the total weight of the contents of each flask to 50 grams, after allowing for all subsequent additions specified below. (2) A solution of the toxicant or of a control agent to be evaluated in each test, to give the concentration desired in parts per million by weight. (3) Chlorella pyrenoidosa, in amounts sufficient to give excellent growth in the controls after 14 days. This was achieved by adding 1 milliliter of a 14 day old culture having luxuriant growth. The Chlorella pyrenoidosa culture was obtained from American Type Culture Collection No. 7516. Control experiments were carried out where no toxicants were employed. In the algicidal tests the growth of algae in the nutrient is lush green and can be seen with the naked eye. Since the minimum inhibitory concentrations of the compounds in this example are those which result in complete inhibition, evaluation of the test results is not subjective. After the inoculum of the test algae was added, the flasks were incubated at a temperature of 28°±2° C. under fluorescent illumination of 250 foot-candle intensity (8 hours light, 16 hours darkness) for a period adequate for growth in the controls (those portions of medium which contained no toxicant). Observations of growth were made at 7-day intervals. Minimum inhibitory concentrations are those that prevented complete growth after 28 days.

SMILES: COc1ccc(C(=O)CBr)cc1Br [Compound 1, 2,3'-dibromo-4'-methoxyacetophenone]
- Observation of growth 21 days after challenge ([1]; 100 ppm w/w, challenge 1): ++ (10 or more colonies were observed)
- Observation of growth 21 days after challenge ([1]; 100 ppm w/w, challenge 2): ++ (10 or more colonies were observed)
- Observation of growth 21 days after challenge ([1]; 100 ppm w/w, challenge 3): ++ (10 or more colonies were observed)
- Observation of growth 21 days after challenge ([1]; 250 ppm w/w, challenge 1): 0
- Observation of growth 21 days after challenge ([1]; 250 ppm w/w, challenge 2): 0
- Observation of growth 21 days after challenge ([1]; 250 ppm w/w, challenge 3): 0
- Observation of growth 21 days after challenge ([1]; 500 ppm w/w, challenge 1): 0
- Observation of growth 21 days after challenge ([1]; 500 ppm w/w, challenge 2): 0
- Observation of growth 21 days after challenge ([1]; 500 ppm w/w, challenge 3): 0
- Observation of growth 21 days after challenge ([1]; 2500 ppm w/w, challenge 1): 0
- Observation of growth 21 days after challenge ([1]; 2500 ppm w/w, challenge 2): 0
- Observation of growth 21 days after challenge ([1]; 2500 ppm w/w, challenge 3): 0
- Observation of growth 21 days after challenge ([1]; 5000 ppm w/w, challenge 1): 0
- Observation of growth 21 days after challenge ([1]; 5000 ppm w/w, challenge 2): 0
- Observation of growth 21 days after challenge ([1]; 5000 ppm w/w, challenge 3): 0
- Inhibition of Aspergillus niger, growth after 14 days ([2]; 5 ppm): 4
- Inhibition of Aspergillus niger, growth after 14 days ([2]; 10 ppm): 2
- Inhibition of Aspergillus niger, growth after 14 days ([2]; 25 ppm): 0
- Inhibition of Aspergillus niger, growth after 14 days ([2]; 100 ppm): 0
- killing at 2 ppm ([3]; pH 8.0): 99%
- killing at 4 ppm ([3]; pH 8.0): 99.9%
- killing at 8 ppm ([3]; pH 8.0): 100%
- killing at 10 ppm ([3]; pH 6.0): 100%
- killing at 10 ppm ([3]; pH 8.0): 100%
- killing at 20 ppm ([3]; pH 6.0): 100%
- killing at 20 ppm ([3]; pH 8.0): 100%
- killing at 30 ppm ([3]; pH 6.0): 100%
- killing at 30 ppm ([3]; pH 8.0): 100%
- MIC ([4]; pH 7.0, 28 days): 4 µg/mL (≈ 13 µM)
- MIC ([4]; pH 8.0, 28 days): 2 µg/mL (≈ 6.49 µM)

SMILES: COc1ccc(C(=O)C(Br)Br)cc1Br [Compound 2, 2,2,3'-tribromo-4'-methoxyacetophenone]
- Observation of growth 21 days after challenge ([1]; 100 ppm w/w, challenge 1): ++ (10 or more colonies were observed)
- Observation of growth 21 days after challenge ([1]; 100 ppm w/w, challenge 2): ++ (10 or more colonies were observed)
- Observation of growth 21 days after challenge ([1]; 100 ppm w/w, challenge 3): ++ (10 or more colonies were observed)
- Observation of growth 21 days after challenge ([1]; 250 ppm w/w, challenge 1): 0
- Observation of growth 21 days after challenge ([1]; 250 ppm w/w, challenge 2): 0
- Observation of growth 21 days after challenge ([1]; 250 ppm w/w, challenge 3): 0
- Observation of growth 21 days after challenge ([1]; 500 ppm w/w, challenge 1): 0
- Observation of growth 21 days after challenge ([1]; 500 ppm w/w, challenge 2): 0
- Observation of growth 21 days after challenge ([1]; 500 ppm w/w, challenge 3): 0
- Observation of growth 21 days after challenge ([1]; 2500 ppm w/w, challenge 1): 0
- Observation of growth 21 days after challenge ([1]; 2500 ppm w/w, challenge 2): 0
- Observation of growth 21 days after challenge ([1]; 2500 ppm w/w, challenge 3): 0
- Observation of growth 21 days after challenge ([1]; 5000 ppm w/w, challenge 1): 0
- Observation of growth 21 days after challenge ([1]; 5000 ppm w/w, challenge 2): 0
- Observation of growth 21 days after challenge ([1]; 5000 ppm w/w, challenge 3): 0
- Inhibition of Aspergillus niger, growth after 14 days ([2]; 5 ppm): 4
- Inhibition of Aspergillus niger, growth after 14 days ([2]; 10 ppm): 2
- Inhibition of Aspergillus niger, growth after 14 days ([2]; 25 ppm): 0
- Inhibition of Aspergillus niger, growth after 14 days ([2]; 100 ppm): 0
- killing at 2 ppm ([3]; pH 8.0): 57%
- killing at 4 ppm ([3]; pH 8.0): 100%
- killing at 8 ppm ([3]; pH 8.0): 100%
- killing at 10 ppm ([3]; pH 6.0): 100%
- killing at 10 ppm ([3]; pH 8.0): 100%
- killing at 20 ppm ([3]; pH 6.0): 100%
- killing at 20 ppm ([3]; pH 8.0): 100%
- killing at 30 ppm ([3]; pH 6.0): 100%
- killing at 30 ppm ([3]; pH 8.0): 100%
- MIC ([4]; pH 7.0, 28 days): 8 µg/mL (≈ 20.7 µM)
- MIC ([4]; pH 8.0, 28 days): 4 µg/mL (≈ 10.3 µM)
